{"source": "patent US20240358862A1", "about": "“Synthesis Method and Application of a Near-infrared Probe GGa-ICG specific binding to PSCA” (Guangzhou Shiyun Biotechnology Co., Ltd, priority 2022, published 2024)", "key": {"[1]": {"tested_on": "PC-3 cells", "test": "Affinity detection by flow cytometry", "type": "binding, human", "conditions": "PC3 cells, 0-500 nM, 37° C., read-out: dissociation constant", "procedure": "To test the affinity of different GGa-ICG aptamers for PC-3 cells, aptamers at different concentrations (0, 10, 20, 50, 100, 200, 500 nM) are incubated with 2×10^5 cells at 37° C. After digestion into a cell suspension, flow cytometry was used for analysis. The average fluorescence intensity of the background was subtracted from that of each sample. The equilibrium dissociation constant (Kd) for aptamer-cell interactions is calculated using SigmaPlot software."}, "[2]": {"tested_on": "prostate cancer cell lines", "test": "Cell binding by fluorescence microscope / flow cytometry", "type": "cell-based, human", "conditions": "200 nM probe", "procedure": "(§1) Therefore, 200 nM of GGa-ICG and ssDNA-ICG were used to confirm their specific binding. The method is as follows: • a. The human prostate cancer cell lines PC-3, DU145, LNCaP, 22RV1, immortalized normal human prostate epithelial cell line RWPE1, and human cervical cancer cell line Hela, as well as MCF7 cells obtained from the American Type Culture Collection (ATCC), were used in this study. All cell lines were cultured at 37° C. and 5% CO2 in a humidified environment. […]\n(§2) After the cells reach a confluency of over 80%, they were passaged and grown for 24-48 hours until they reached a confluency of over 50%. They were then washed once with PBS (without Ca and Mg ions), twice with cold washing buffer, and incubated at room temperature (4° C. for the internalization inhibition group) for 30 minutes with the sample buffer containing near-infrared fluorescence probes GGa-ICG, ssDNA-ICG, and ICG to a final concentration of 200 nM (or as specified). The cells were observed under a fluorescence microscope or analyzed by flow cytometry after digestion with trypsin without EDTA. […]"}, "[3]": {"tested_on": "tumor cell lines with elevated PSCA expression", "test": "Flow cytometry binding to other tumor cell lines", "type": "cell-based", "from_the_text": "PSCA is expressed at high levels in various tumors such as prostate cancer, bladder cancer, kidney cancer, breast cancer, colon cancer, lung cancer, pancreatic cancer, etc. Using the aforementioned method, T24 bladder cancer cells, Cakil renal cancer cells, MDA-MB468 breast cancer cells, HT29 colon cancer cells, PANC1 pancreatic cancer cells, NCI-H460 lung cancer cells, and other cell lines were stained with GGa-ICG for flow cytometry analysis. Positive cell lines were used to establish subcutaneous transplantation tumor models to detect the visualization of GGa-ICG in vivo."}, "[4]": {"target": "T1, PSCA (Homo sapiens, UniProt O43653)", "T1 sequence (O43653 12-83)": "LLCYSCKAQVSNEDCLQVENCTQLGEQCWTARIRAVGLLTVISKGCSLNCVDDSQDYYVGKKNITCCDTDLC", "test": "Binding site of GGa-ICG on PSCA protein", "conditions": "sequence ALQPGTALLCYSCKA"}, "[5]": {"tested_on": "RWPE-1, MCF2, Hela cells", "test": "Cell binding by fluorescence microscope / flow cytometry, non-tumour prostate and other cells", "type": "cell-based, human", "conditions": "200 nM probe", "procedure": "as §1, §2"}, "[6]": {"test": "Fluorescence depth detection (tissue penetration depth)", "type": "physicochemical", "conditions": "excited at 780 nm, signals detected after 5 minutes", "procedure": "The tissue penetration depth of ICG, GGa-ICG, and ssDNA-ICG was detected using a fluorescence spectrometer at depths of 1, 2, 3, 4, and 5 mm. Fluorescence was excited at a wavelength of 780 nm and fluorescence signals were detected after 5 minutes to compare signal-to-noise ratios and observe the fluorescence signal penetration depth."}, "[7]": {"target": "T1, PSCA", "test": "Pull-down assay", "type": "binding", "design": "Membrane proteins of PC-3 cells were extracted; endogenous in cells; host or cells: PC-3", "conditions": "PC-3 membrane proteins, Western blotting with anti-PSCA antibody", "procedure": "Membrane proteins of PC-3 cells were extracted and incubated with agarose beads, agarose-conjugated GGa-ICG, or an agarose-conjugated library. The resulting pull-down mixture containing proteins was analyzed by Western blotting using a PSCA-specific antibody. The captured proteins were analyzed by SDS-PAGE gel and Coomassie blue staining, followed by Western blotting using an anti-PSCA antibody."}}}
{"substance": "GGa-ICG: near-infrared probe: PSCA-binding nucleic acid aptamer GGa linked at 3′ to an ICG derivative dye (DNA TGCCACTACAGCTGGTTCGGTTTGGTGACTTCGTTCTTCGTTGTGGT; 3'-ICG dye, further chemistry not given here)", "values": [{"measurement": "Kd", "setting": "[1]", "value": 54.9, "unit": "nM"}, {"measurement": "binding affinity of PC3, VCap and LNCap cell lines relative to DU-145, 22RV1 cells", "setting": "[2]", "value": "stronger"}, {"measurement": "specific binding to prostate cancer cell lines", "setting": "[2]", "value": "could specifically bind"}, {"measurement": "binding to tumor cell lines with elevated PSCA expression", "setting": "[3]", "value": "could bind"}, {"measurement": "binding site on PSCA protein (amino acids)", "setting": "[4]", "value": "14-28"}, {"measurement": "binding affinity to RWPE-1, MCF2, Hela cells", "setting": "[5]", "value": "significantly reduced binding affinity"}, {"measurement": "penetration depth", "setting": "[6]", "value": "~6", "unit": "mm"}, {"measurement": "pull-down of PSCA", "setting": "[7]", "value": "easily pulled down"}]}
